Patent US20160303127A1, “COMBINATION THERAPY WITH C-MET AND EGFR ANTAGONISTS” (Genentech, Inc., priority 2008, published 2016)

What was measured:
EBC-1 shMet-4.5 tumors = assay: Combination efficacy of erlotinib with c-met knockdown (Dox) in the EBC-1 shMet-4.5 NSCLC xenograft model; format: in vivo, nude mice (nu/nu); conditions: EBC-1 shMet-4.5 xenograft
Protocol: Test material. Erlotinib (Tarceva™) was provided by OSI Pharmaceuticals to the Formulations Department at Genentech and was weighed out along with a sufficient amount of vehicle (methylcellulose tween (MCT)). Materials were stored in a refrigerator set to maintain a temperature range of 4° C. to 8° C. Anti-c-met monovalent monoclonal antibody MetMAb (rhuOA5D5v2) (WO2007/063816) was provided by the Antibody Engineering Department at Genentech, Inc., in a clear liquid form. The EBC-1 cell line was obtained from Japanese Collection of Research Bioresources (JCRB). Species. Forty nude mice (nu/nu) were obtained from Charles River Laboratories (CRL) and were acclimatized for at least one week prior to being put on study. Animals were housed in ventilated caging systems in rooms with filters supplying High-Efficiency Particulate Air (HEPA). Only animals that appeared to be healthy and were free of obvious abnormalities were used for the study. Study design. EBC-1 cells were cultured in growth media that consisted of RPMI 1640 media (Invitrogen), 2 mM L-glutamine, and 10% fetal bovine serum. To prepare cells for inoculation into mice, cells were trypsinized, washed with ten milliliters of sterile 1× phosphate buffered saline (PBS). A subset of cells was counted by trypan blue exclusion and the remainder of cells was resuspended in 100 μl of sterile 1× PBS to a concentration of 5×10^7 cells per milliliter. Mice were inoculated subcutaneously in the right sub-scapular region with 5×10^6 EBC-1 cells. […] Mice in Group 1 (control group) were treated with 100 μL vehicle control, methylcellulose tween (MCT), every day (QD) via oral gavage (PO) and were switched to drinking water containing 5% sucrose. […] Dox and sucrose water was changed every 2-3 days. Erlotinib and MCT were dosed for 14 days, stopped for 6 days and then resumed for the remainder of the study (20 days). […] All studies and handling of mice complied with the Institutional Animal Care and Use Committee (IACUC) guidelines. [table] Tumor and Body Weight Measurement. […] Fowler Company, Inc.; Newton, Mass.). The following formula was used with Excel v11.2 (Microsoft Corporation; Redmond, Wash.) to calculate tumor volume: […] Efficacy Data Analysis. Tumor inhibition was plotted using KaleidaGraph 3.6 (Synergy Software; Reading, Pa.). Percent growth inhibition (% Inh) at Day 17 was calculated as follows: […] Tumor incidence (TI) was determined by the number of measurable tumors in each group at Day 17. […] Mean tumor volume and standard error of the mean (SEM) were calculated using JMP software, version 5.1.2 (SAS Institute; Cary, N.C.). Data analysis and generation of p-values using either Student's t-test or the Dunnett's t-test was also done using JMP software, version 5.1.2. […] Mice were then grouped into four treatment arms; […] Vehicles, Group 2: Doxycycline (Dox), Group 3: erlotinib (100 mg/kg), and Group 4: erlotinib+Dox (See Table 6).

[1] = target: c-met (as expressed in NCI-H596 cells) (human) (UniProt P08581); assay: cell-based or functional assay
[2] = 10 mice per group, any day during the study

Row | Molecule | number of complete responses (CR; tumor regression of 100%) (EBC-1 shMet-4.5 tumors; [2]) | number of partial responses (PR; tumor regression >50% but <100% of starting tumor volume) (EBC-1 shMet-4.5 tumors; [2]) | reduction in tumor growth compared to the vehicle control (tumor inhibition) (EBC-1 shMet-4.5 tumors; nude mice, day 19, erlotinib 100 mg/kg PO QD, Dox in drinking water) [%] | pMet/total Met in NCI-H596 xenograft tumors, percent of vehicle control (immunoprecipitation and immunoblot, Li-Cor quantification) (% of vehicle control) [1]
1 | C[C@H]1c2cccc(O)c2C(=O)C2=C(O)[C@]3(O)C(=O)C(C(N)=O)=C(O)[C@@H](N(C)C)[C@@H]3[C@@H](O)[C@@H]21 [Dox, doxycycline] | 1 | 2 | 38 | –
2 | Anti-c-met monovalent monoclonal antibody MetMAb (rhuOA5D5v2) | – | – | – | 12
